{
  "source": "PubChem BioAssay AID1918932",
  "about": "(Molecular Pharmacology Branch, DTP, NCI, 2023)",
  "test_system": "171881-019-R-J1-PDC complex spheroid viability",
  "assay": "Anticancer human tumor 171881-019-R-J1-PDC patient-derived invasive breast carcinoma cell line growth inhibition",
  "conditions": "for viability, T/C: stronger effect = lower value",
  "summary_of_the_method": "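Multicellular complex spheroids of tumor cells with human endothelial cells (HUVEC) and mesenchymal stem cells; the LSD1 inhibitor iadademstat was combined with standard-of-care or investigational agents. Top concentration at or near clinical Cmax, half-log dilutions; final DMSO ≤0.25%.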",
  "key": {"[1]": {"conditions": "curve of first compound, second compound 0.1 µM"}, "[2]": {"conditions": "curve of first compound, second compound 0.316 µM"}, "[3]": {"conditions": "curve of first compound, second compound 1 µM"}, "[4]": {"conditions": "curve of first compound, second compound 3.16 µM"}, "[5]": {"conditions": "curve of first compound, second compound 10 µM"}, "[6]": {"conditions": "second compound 0.1 µM, first compound 0.000316 µM"}, "[7]": {"conditions": "second compound 0.1 µM, first compound 0.001 µM"}, "[8]": {"conditions": "second compound 0.1 µM, first compound 0.00316 µM"}, "[9]": {"conditions": "second compound 0.1 µM, first compound 0.01 µM"}, "[10]": {"conditions": "second compound 0.1 µM, first compound 0.0316 µM"}, "[11]": {"conditions": "second compound 0.1 µM, first compound 0.1 µM"}, "[12]": {"conditions": "second compound 0.316 µM, first compound 0.000316 µM"}, "[13]": {"conditions": "second compound 0.316 µM, first compound 0.001 µM"}, "[14]": {"conditions": "second compound 0.316 µM, first compound 0.00316 µM"}, "[15]": {"conditions": "second compound 0.316 µM, first compound 0.01 µM"}, "[16]": {"conditions": "second compound 0.316 µM, first compound 0.0316 µM"}, "[17]": {"conditions": "second compound 0.316 µM, first compound 0.1 µM"}, "[18]": {"conditions": "second compound 1 µM, first compound 0.000316 µM"}, "[19]": {"conditions": "second compound 1 µM, first compound 0.001 µM"}, "[20]": {"conditions": "second compound 1 µM, first compound 0.00316 µM"}, "[21]": {"conditions": "second compound 1 µM, first compound 0.01 µM"}, "[22]": {"conditions": "second compound 1 µM, first compound 0.0316 µM"}, "[23]": {"conditions": "second compound 1 µM, first compound 0.1 µM"}, "[24]": {"conditions": "second compound 3.16 µM, first compound 0.000316 µM"}, "[25]": {"conditions": "second compound 3.16 µM, first compound 0.001 µM"}, "[26]": {"conditions": "second compound 3.16 µM, first compound 0.00316 µM"}, "[27]": {"conditions": "second compound 3.16 µM, first compound 0.01 µM"}, "[28]": {"conditions": "second compound 3.16 µM, first compound 0.0316 µM"}, "[29]": {"conditions": "second compound 3.16 µM, first compound 0.1 µM"}, "[30]": {"conditions": "second compound 10 µM, first compound 0.000316 µM"}, "[31]": {"conditions": "second compound 10 µM, first compound 0.001 µM"}, "[32]": {"conditions": "second compound 10 µM, first compound 0.00316 µM"}, "[33]": {"conditions": "second compound 10 µM, first compound 0.01 µM"}, "[34]": {"conditions": "second compound 10 µM, first compound 0.0316 µM"}, "[35]": {"conditions": "second compound 10 µM, first compound 0.1 µM"}},
  "note": "Several values for one entry are separate records, joined by “and”; a condition that tells them apart may be missing. Identical values can stand only once.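 Also: spheroids exposed to agents for 7 days after 3 days growth.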",
  "data": [
    {"smiles": "Cn1ncnc1C1c2n[nH]c(=O)c3cc(F)cc(c23)NC1c1ccc(F)cc1", "note": "(centres undefined) + NC1CC1c1ccc(-c2cccc(O)c2)cc1", "values": [
      {"measurement": "IC50", "setting": "[1]", "result": "> 100", "unit": "nM"},
      {"measurement": "IC50", "setting": "[2]", "result": "> 100", "unit": "nM"},
      {"measurement": "IC50", "setting": "[3]", "result": "> 100", "unit": "nM"},
      {"measurement": "IC50", "setting": "[4]", "result": "> 100", "unit": "nM"},
      {"measurement": "IC50", "setting": "[5]", "result": "> 100", "unit": "nM"},
      {"measurement": "viability, T/C", "setting": "[6]", "result": 105, "unit": "%"},
      {"measurement": "viability, T/C", "setting": "[7]", "result": 106, "unit": "%"},
      {"measurement": "viability, T/C", "setting": "[8]", "result": 107, "unit": "%"},
      {"measurement": "viability, T/C", "setting": "[9]", "result": 104, "unit": "%"},
      {"measurement": "viability, T/C", "setting": "[10]", "result": 105, "unit": "%"},
      {"measurement": "viability, T/C", "setting": "[11]", "result": 102, "unit": "%"},
      {"measurement": "viability, T/C", "setting": "[12]", "result": 106, "unit": "%"},
      {"measurement": "viability, T/C", "setting": "[13]", "result": 111, "unit": "%"},
      {"measurement": "viability, T/C", "setting": "[14]", "result": 109, "unit": "%"},
      {"measurement": "viability, T/C", "setting": "[15]", "result": 108, "unit": "%"},
      {"measurement": "viability, T/C", "setting": "[16]", "result": 108, "unit": "%"},
      {"measurement": "viability, T/C", "setting": "[17]", "result": 102, "unit": "%"},
      {"measurement": "viability, T/C", "setting": "[18]", "result": 105, "unit": "%"},
      {"measurement": "viability, T/C", "setting": "[19]", "result": 106, "unit": "%"},
      {"measurement": "viability, T/C", "setting": "[20]", "result": 111, "unit": "%"},
      {"measurement": "viability, T/C", "setting": "[21]", "result": 108, "unit": "%"},
      {"measurement": "viability, T/C", "setting": "[22]", "result": 103, "unit": "%"},
      {"measurement": "viability, T/C", "setting": "[23]", "result": 103, "unit": "%"},
      {"measurement": "viability, T/C", "setting": "[24]", "result": 97.2, "unit": "%"},
      {"measurement": "viability, T/C", "setting": "[25]", "result": 104, "unit": "%"},
      {"measurement": "viability, T/C", "setting": "[26]", "result": 101, "unit": "%"},
      {"measurement": "viability, T/C", "setting": "[27]", "result": 102, "unit": "%"},
      {"measurement": "viability, T/C", "setting": "[28]", "result": 98.6, "unit": "%"},
      {"measurement": "viability, T/C", "setting": "[29]", "result": 96.8, "unit": "%"},
      {"measurement": "viability, T/C", "setting": "[30]", "result": 85.3, "unit": "%"},
      {"measurement": "viability, T/C", "setting": "[31]", "result": 91.2, "unit": "%"},
      {"measurement": "viability, T/C", "setting": "[32]", "result": 90.8, "unit": "%"},
      {"measurement": "viability, T/C", "setting": "[33]", "result": 83, "unit": "%"},
      {"measurement": "viability, T/C", "setting": "[34]", "result": 83.3, "unit": "%"},
      {"measurement": "viability, T/C", "setting": "[35]", "result": 81.3, "unit": "%"}
    ]},
    {"smiles": "CC(C)CC(NC(=O)CNC(=O)c1cc(Cl)ccc1Cl)B1OC(=O)CC(CC(=O)O)(C(=O)O)O1", "note": "(centres undefined) + NC1CC1c1ccc(-c2cccc(O)c2)cc1", "values": [
      {"measurement": "IC50", "setting": "[1]", "result": 0.885, "unit": "nM"},
      {"measurement": "IC50", "setting": "[2]", "result": 1.06, "unit": "nM"},
      {"measurement": "IC50", "setting": "[3]", "result": 0.719, "unit": "nM"},
      {"measurement": "IC50", "setting": "[4]", "result": "< 0.316", "unit": "nM"},
      {"measurement": "IC50", "setting": "[5]", "result": "< 0.316", "unit": "nM"},
      {"measurement": "viability, T/C", "setting": "[6]", "result": 95, "unit": "%"},
      {"measurement": "viability, T/C", "setting": "[7]", "result": 35.5, "unit": "%"},
      {"measurement": "viability, T/C", "setting": "[8]", "result": 38.4, "unit": "%"},
      {"measurement": "viability, T/C", "setting": "[9]", "result": 23, "unit": "%"},
      {"measurement": "viability, T/C", "setting": "[10]", "result": 5.32, "unit": "%"},
      {"measurement": "viability, T/C", "setting": "[11]", "result": 15.9, "unit": "%"},
      {"measurement": "viability, T/C", "setting": "[12]", "result": 91.9, "unit": "%"},
      {"measurement": "viability, T/C", "setting": "[13]", "result": 49.9, "unit": "%"},
      {"measurement": "viability, T/C", "setting": "[14]", "result": 28.8, "unit": "%"},
      {"measurement": "viability, T/C", "setting": "[15]", "result": 24.4, "unit": "%"},
      {"measurement": "viability, T/C", "setting": "[16]", "result": 13.9, "unit": "%"},
      {"measurement": "viability, T/C", "setting": "[17]", "result": 11.5, "unit": "%"},
      {"measurement": "viability, T/C", "setting": "[18]", "result": 76.5, "unit": "%"},
      {"measurement": "viability, T/C", "setting": "[19]", "result": 39.3, "unit": "%"},
      {"measurement": "viability, T/C", "setting": "[20]", "result": 16.2, "unit": "%"},
      {"measurement": "viability, T/C", "setting": "[21]", "result": 8.02, "unit": "%"},
      {"measurement": "viability, T/C", "setting": "[22]", "result": 11.6, "unit": "%"},
      {"measurement": "viability, T/C", "setting": "[23]", "result": 5.3, "unit": "%"},
      {"measurement": "viability, T/C", "setting": "[24]", "result": 43.9, "unit": "%"},
      {"measurement": "viability, T/C", "setting": "[25]", "result": 42.6, "unit": "%"},
      {"measurement": "viability, T/C", "setting": "[26]", "result": 6.48, "unit": "%"},
      {"measurement": "viability, T/C", "setting": "[27]", "result": 6.09, "unit": "%"},
      {"measurement": "viability, T/C", "setting": "[28]", "result": 12.3, "unit": "%"},
      {"measurement": "viability, T/C", "setting": "[29]", "result": 12.9, "unit": "%"},
      {"measurement": "viability, T/C", "setting": "[30]", "result": 19.6, "unit": "%"},
      {"measurement": "viability, T/C", "setting": "[31]", "result": 24.7, "unit": "%"},
      {"measurement": "viability, T/C", "setting": "[32]", "result": 1.13, "unit": "%"},
      {"measurement": "viability, T/C", "setting": "[33]", "result": 4.15, "unit": "%"},
      {"measurement": "viability, T/C", "setting": "[34]", "result": 4.16, "unit": "%"},
      {"measurement": "viability, T/C", "setting": "[35]", "result": 4.12, "unit": "%"}
    ]},
    {"smiles": "Cn1ncnc1C1c2n[nH]c(=O)c3cc(F)cc(c23)NC1c1ccc(F)cc1", "note": "(centres undefined)", "values": [
      {"measurement": "viability, T/C", "setting": "compound 0.000316 µM", "result": "92.8% and 99.4%"},
      {"measurement": "viability, T/C", "setting": "compound 0.001 µM", "result": "103% and 104%"},
      {"measurement": "viability, T/C", "setting": "compound 0.00316 µM", "result": "88% and 103%"},
      {"measurement": "viability, T/C", "setting": "compound 0.01 µM", "result": "102% and 99%"},
      {"measurement": "viability, T/C", "setting": "compound 0.0316 µM", "result": "82.2% and 97.7%"},
      {"measurement": "viability, T/C", "setting": "compound 0.1 µM", "result": "97.2% and 98.6%"},
      {"measurement": "IC50", "setting": "curve of compound", "result": "> 100", "unit": "nM"}
    ]},
    {"smiles": "NS(=O)(=O)OCC1CC(n2ccc3c(NC4CCc5ccccc54)ncnc32)CC1O", "note": "(centres undefined)", "values": [
      {"measurement": "viability, T/C", "setting": "compound 0.00949 µM", "result": "101% and 40.4%"},
      {"measurement": "viability, T/C", "setting": "compound 0.03 µM", "result": "44.4% and 34.8%"},
      {"measurement": "viability, T/C", "setting": "compound 0.0949 µM", "result": "25.8% and 27.8%"},
      {"measurement": "viability, T/C", "setting": "compound 0.3 µM", "result": "24.2% and 25.3%"},
      {"measurement": "viability, T/C", "setting": "compound 0.949 µM", "result": "25.5% and 29.9%"},
      {"measurement": "viability, T/C", "setting": "compound 3 µM", "result": "22.4% and 21.6%"},
      {"measurement": "IC50", "setting": "curve of compound", "result": "26.9 nM and < 9.49 nM"}
    ]}
  ]
}
